In the supplement of paper PMC4862054:

Columns and labels:
Settings in all cases: incubation time: 72 h
[1] = tested on: MDA-MB-231; assay: normalised response (% of control), CellTiter-Glo; higher = more viable cells (100 = DMSO, 0 = benzethonium chloride kill control)
Protocol: (§1)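 DSRT, 72 h incubation, CellTox Green / CellTiter-Glo readout. Signal is normalised to DMSO and benzethonium chloride controls. Value is the normalised response at the highest dose.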

[2] = tested on: MFM-223; assay: as above
Protocol: as §1

[3] = tested on: HCC1937; assay: as above
Protocol: as §1

[4] = tested on: MCF-10A; assay: as above
Protocol: as §1

[5] = tested on: DU-4475; assay: as above
Protocol: as §1

[6] = tested on: HDQ-P1; assay: as above
Protocol: as §1

[7] = tested on: MDA-MB-436; assay: as above
Protocol: as §1

[8] = tested on: MDA-MB-453; assay: as above
Protocol: as §1

[9] = tested on: Hs578T; assay: as above
Protocol: as §1

[10] = tested on: HCC1599; assay: as above
Protocol: as §1

[11] = tested on: SK-BR-3; assay: as above
Protocol: as §1

[12] = tested on: BT-474; assay: as above
Protocol: as §1

[13] = tested on: CAL-85-1; assay: as above
Protocol: as §1

[14] = tested on: MDA-MB-468; assay: as above
Protocol: as §1

[15] = tested on: CAL-51; assay: as above
Protocol: as §1

[16] = tested on: BT-549; assay: as above
Protocol: as §1

[17] = tested on: CAL-148; assay: as above
Protocol: as §1

[18] = tested on: HCC1143; assay: as above
Protocol: as §1

[19] = tested on: CAL-120; assay: as above
Protocol: as §1

[20] = tested on: MDA-MB-231; assay: normalised response (% of control), CellTox Green; higher = less cell death (100 = DMSO, 0 = benzethonium chloride kill control)
Method in brief: (§2)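 Two readouts were taken after 72 h: CellTox Green fluorescence (485/520 nm) first, then CellTiter-Glo luminescence after 10 min at room temperature. Breast cancer cell lines had been seeded as 20 µl suspension into 384-well plates holding compound at 5 concentrations in 10-fold steps across a compound-specific 10,000-fold range. Each value is a normalised signal at a single concentration, with plates scaled to 0.1 % DMSO (100) and a positive kill control (0).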

[21] = tested on: MFM-223; assay: as above
Method in brief: as §2

[22] = tested on: HCC1937; assay: as above
Method in brief: as §2

[23] = tested on: MCF-10A; assay: as above
Method in brief: as §2

[24] = tested on: DU-4475; assay: as above
Method in brief: as §2

[25] = tested on: HDQ-P1; assay: as above
Method in brief: as §2

[26] = tested on: MDA-MB-436; assay: as above
Method in brief: as §2

[27] = tested on: MDA-MB-453; assay: as above
Method in brief: as §2

[28] = tested on: Hs578T; assay: as above
Method in brief: as §2

[29] = tested on: HCC1599; assay: as above
Method in brief: as §2

[30] = tested on: BT-474; assay: as above
Method in brief: as §2

[31] = tested on: CAL-85-1; assay: as above
Method in brief: as §2

[32] = tested on: MDA-MB-468; assay: as above
Method in brief: as §2

[33] = tested on: CAL-51; assay: as above
Method in brief: as §2

[34] = tested on: BT-549; assay: as above
Method in brief: as §2

[35] = tested on: CAL-148; assay: as above
Method in brief: as §2

[36] = tested on: HCC1143; assay: as above
Method in brief: as §2

[37] = tested on: CAL-120; assay: as above
Method in brief: as §2

SMILES	normalised response [1]	normalised response [2]	normalised response [3]	normalised response [4]	normalised response [5]	normalised response [6]	normalised response [7]	normalised response [8]	normalised response [9]	normalised response [10]	normalised response [11]	normalised response [12]	normalised response [13]	normalised response [14]	normalised response [15]	normalised response [16]	normalised response [17]	normalised response [18]	normalised response [19]	normalised response [20]	normalised response [21]	normalised response [22]	normalised response [23]	normalised response [24]	normalised response [25]	normalised response [26]	normalised response [27]	normalised response [28]	normalised response [29]	normalised response [30]	normalised response [31]	normalised response [32]	normalised response [33]	normalised response [34]	normalised response [35]	normalised response [36]	normalised response [37]
Cc1c(Cn2c(C)nc3c(C(=O)O)cc(N4CCOCC4)cc32)cccc1C(F)(F)F (10000 nM)	96.1%	102%	92.1%	111%	97%	100%	86.2%	94.1%	97.6%	97.5%	98.3%	94.5%	97.3%	69.4%	64.9%	85.4%	114%	106%	100%	110%	82.5%	114%	108%	102%	112%	96.6%	94.8%	120%	108%	100%	78.3%	174%	90.7%	101%	77.8%	115%	106%
CC/C(=C(\c1ccc(O)cc1)c1ccc(OCCN(C)C)cc1)c1ccccc1 [4-hydroxytamoxifen] (10000 nM)	41.1%	45.5%	25.4%	81.4%	84%	73.1%	35%	34.4%	80.8%	66.5%	49.8%	63%	44.9%	13.8%	60.5%	62.7%	85%	88.6%	76.5%	7.14%	91.1%	-22.6%	75.6%	92%	81.4%	74.7%	46.9%		82.9%	14.6%	34%	-1140%	103%	68%	73.9%	68%	44.5%
O=S(=O)(c1cccc2cnccc12)N1CCCNCC1 [Fasudil] (50000 nM)	70.1%	88.2%	96.5%	78.3%	86.3%	89%	90.2%	79.6%	86.7%	96.6%	57%	67.5%	111%	93.6%	117%	78.9%	96.3%	83.7%	67.1%	50.6%	102%	79.6%	87.7%	95.4%		94.4%	101%	118%	80.3%	99.3%	80.6%	90.6%	116%	97.4%	97.8%	99.4%	93.2%
Cc1cccc(-c2nn3c(c2-c2ccnc4ccc(C(N)=O)cc24)CCC3)n1 [Galunisertib] (1000 nM)	98.3%	108%	101%	90.8%	108%	105%	112%	106%	106%	108%	116%	99.6%	110%	101%	91.8%	95.7%	118%	105%	105%	127%	102%	116%	103%	108%	108%		98.8%	112%	112%	103%	68.4%	121%	98.5%	109%	105%	127%	99.3%
CS(=O)(=O)N1CCN(Cc2cc3nc(-c4cccc5[nH]ncc45)nc(N4CCOCC4)c3s2)CC1 [Pictilisib] (10000 nM)	48.8%	28.2%	32.3%	18.4%	81.4%	19.9%	43%	13.4%	31.3%	64.9%	22.2%	50.6%	27.8%	26.4%	8.84%	25.6%	15.6%	26%	34.3%	118%	56.4%	91.4%	79.4%		85.4%	116%	92%	98.8%	103%	47.1%	50.2%	155%	48.2%	102%	47.1%	120%	105%
CC(C)N(CCCNC(=O)Nc1ccc(C(C)(C)C)cc1)C[C@H]1O[C@@H](n2cc(Br)c3c(N)ncnc32)[C@H](O)[C@@H]1O [SGC0946] (10000 nM)	74.7%	81.2%	84.2%	101%	94.3%	87.2%	93.8%	69.3%	101%	78%	73.5%	88.1%	83.1%	70.7%	94.1%	92.3%	82.6%	91.4%	102%	71.9%	89.3%	94%	79.5%	98.7%	99.1%	75%	91.9%		81.6%	85.2%	114%	115%	101%	95.8%	93.7%	100%	97.4%
